Laboratory results taken from patent publication US12583858B2 (Genentech, Inc., priority 2015, dated 2026).

Target: T1, TDO2 (Homo sapiens, UniProt P48775)
T1 construct: decreased levels of NFK in SW48 cells (high TDO expressing cells)
Test: TDO2 cell assay (NFK GreenScreen, SW48 cells)
Assay type: cell-based
Conditions: SW48 cells (high TDO expressing), 200 uM tryptophan, 24 hours; Table 3; read-out: TDO2 Cell Fluor EC50

T1 sequence (P48775 whole entry): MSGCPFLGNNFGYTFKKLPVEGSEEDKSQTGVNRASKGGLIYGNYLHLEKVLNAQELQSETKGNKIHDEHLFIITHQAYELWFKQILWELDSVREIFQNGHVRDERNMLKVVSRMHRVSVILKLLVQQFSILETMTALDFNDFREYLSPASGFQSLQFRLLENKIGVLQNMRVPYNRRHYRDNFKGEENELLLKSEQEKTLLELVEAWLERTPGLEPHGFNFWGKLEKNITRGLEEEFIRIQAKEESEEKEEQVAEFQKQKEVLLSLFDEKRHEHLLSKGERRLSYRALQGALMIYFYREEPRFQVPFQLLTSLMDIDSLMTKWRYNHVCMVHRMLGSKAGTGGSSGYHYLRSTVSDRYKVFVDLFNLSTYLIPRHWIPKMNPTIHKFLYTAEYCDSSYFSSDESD

| EC50 | Structure (SMILES) |
| --- | --- |
| 3000 nM | OC1c2ccnn2CCCC1C1c2ccccc2-c2cncn21 (single isomer, unassigned) [Example 133g] |
| 560 nM | OC1COCCC1C1c2ccccc2-c2cncn21 (single isomer, unassigned) [Example 06g] |
| 5500 nM | CC1(C)CCCC(C2c3ccccc3-c3cncn32)C1O (single isomer, unassigned) [Example 24c] |
| > 25000 nM | OC1CCCOCC1C1c2ccccc2-c2cncn21 (single isomer, unassigned) [Example 86e] |
| 710 nM | OC1COCC1C1c2ccccc2-c2cncn21 (single isomer, unassigned) [Example 26c] |
| 24000 nM | CC1(C)OCC(C2c3ccccc3-c3cncn32)C1O (single isomer, unassigned) [Example 85a] |
| 14000 nM | O[C@@H]1COCC[C@H]1[C@@H]1c2c(F)cccc2-c2cncn21 (single isomer, unassigned) [Example 120c] |
| > 25000 nM | N#CCN1CCC(O)C(C2c3ccccc3-c3cncn32)C1 (single isomer, unassigned) [Example 58d] |
| 11000 nM | N[C@H]1COC[C@H]1[C@H]1c2ccccc2-c2cncn21 [Example 32b, (3R,4R)-4-[(5S)-5H-imidazo[4,3-a]isoindol-5-yl]oxolan-3-amine] |
| 270 nM | Cc1cnn2c1C(O)C(C1c3ccccc3-c3cncn31)CC2 (single isomer, unassigned) [Example 159a] |
| 1200 nM | OC1CCOCC1C1c2cc(F)ccc2-c2cncn21 (single isomer, unassigned) [Example 75b] |
| > 25000 nM | N[C@@H]1COC[C@@H]1[C@@H]1c2ccccc2-c2cncn21 [Example 32a, (3S,4S)-4-[(5R)-5H-imidazo[4,3-a]isoindol-5-yl]oxolan-3-amine] |
| 520 nM | Cc1ccc2c(c1)C(C1COCC1O)n1cncc1-2 (single isomer, unassigned) [Example 110a] |
| 120 nM | Cc1nc2c(o1)CCC(C1c3ccccc3-c3cncn31)C2O (single isomer, unassigned) [Example 178a] |
| 23000 nM | O[C@H]1CCOC[C@@H]1[C@@H]1c2ccccc2-c2cncn21 [Example 05a, (3S,4S)-3-((R)-5H-imidazo[5,1-a]isoindol-5-yl)-tetrahydro-2H-pyran-4-ol] |
| 12000 nM | OC1c2nncn2CCC1C1c2ccccc2-c2cncn21 (single isomer, unassigned) [Example 146-1d] |
| > 25000 nM | OC1c2nccn2CCC1C1c2ccccc2-c2cncn21 (single isomer, unassigned) [Example 88h] |
| 110 nM | CNS(=O)(=O)N1CC[C@@H]([C@H]2c3ccccc3-c3cncn32)[C@H](O)C1 [Example 74b, (3S,4S)-3-hydroxy-4-((S)-5H-imidazo[5,1-a]isoindol-5-yl)-N-methylpiperidine-1-sulfonamide] |
| 62 nM | O[C@@H]1CCC(F)(F)C[C@@H]1[C@H]1c2ccccc2-c2cncn21 (single isomer, unassigned) [Example 18b] |
| 160 nM | CC1(C)COCC(C2c3ccccc3-c3cncn32)C1O (single isomer, unassigned) [Example 66f] |
| > 25000 nM | CCS(=O)(=O)N1CC[C@H]([C@H]2c3ccccc3-c3cncn32)[C@@H](O)C1 (stereo in doubt) [Example 16d, (3R,4R)-1-(ethylsulfonyl)-4-((S)-5H-imidazo[5,1-a]isoindol-5-yl)piperidin-3-ol] |
| 760 nM | OC1c2[nH]ncc2CCC1C1c2ccccc2-c2cncn21 (single isomer, unassigned) [Example 157h] |
| > 25000 nM | Cc1cc2n(n1)CCC(C1c3ccccc3-c3cncn31)C2O (single isomer, unassigned) [Example 166a] |
| 5300 nM | Cn1cc2c(n1)C(O)C(C1c3ccccc3-c3cncn31)CC2 (single isomer, unassigned) [Example 139-1a] |
| 1100 nM | CC1(C)C[C@@H](O)[C@H]1[C@H]1c2ccccc2-c2cncn21 (single isomer, unassigned) [Example 22f] |
| 450 nM | CC1(O)CCC1C1c2ccccc2-c2cncn21 (single isomer, unassigned) [Example 35b] |
| 7600 nM | O[C@H]1CCCC[C@@H]1[C@@H]1c2ccccc2-c2cncn21 [Example 03g, (1S,2R)-2-((R)-5H-imidazo[5,1-a]isoindol-5-yl)cyclohexan-1-ol] |
| 4400 nM | NS(=O)(=O)N1CC(O)C(C2c3ccccc3-c3cncn32)C1 (single isomer, unassigned) [Example 28b] |

More lines, now with the values behind:

| Structure (SMILES) | EC50 |
| --- | --- |
| OC1(C2c3ccccc3-c3cncn32)CCCC1 (racemic) [Example 55, 1-(5H-imidazo[5,1-a]isoindol-5-yl)cyclopentan-1-ol] | 1600 nM |
| N#Cc1cnn2c1C(O)C(C1c3ccccc3-c3cncn31)CC2 (single isomer, unassigned) [Example 156b] | 240 nM |
| O=c1cccc2n1CCC(C1c3ccccc3-c3cncn31)C2O (single isomer, unassigned) [Example 29b, 1-hydroxy-2-(5H-imidazo[5,1-a]isoindol-5-yl)-3,4-dihydro-1H-quinolizin-6(2H)-one] | 670 nM |
| CCS(=O)(=O)N1CC(O)(CC2c3ccccc3-c3cncn32)C1 (single isomer, unassigned) [Example 108b] | > 25000 nM |
| OC1c2cnccc2CCC1C1c2ccccc2-c2cncn21 (single isomer, unassigned) [Example 04a] | 1300 nM |
| OC1c2cnccc2CC1C1c2ccccc2-c2cncn21 (single isomer, unassigned) [Example 71b] | 630 nM |
| N#Cc1cnc2c(c1)CCC(C1c3ccccc3-c3cncn31)C2O (single isomer, unassigned) [Example 107b] | > 25000 nM |
| NS(=O)(=O)c1ccc2c(c1)C(O)C(C1c3ccccc3-c3cncn31)CC2 (single isomer, unassigned) [Example 105d] | 44 nM |
| N#Cc1ccc2c(c1)C(O)C(C1c3ccccc3-c3cncn31)CC2 (single isomer, unassigned) [Example 113b] | 5000 nM |
| NS(=O)(=O)c1ccc2c(c1)C(O)C(C1c3ccccc3-c3cncn31)CC2 (single isomer, unassigned) [Example 105f] | 16000 nM |
| O[C@H]1c2cccnc2CC[C@@H]1[C@H]1c2ccccc2-c2cncn21 [Example 31b, (5R,6R)-6-((S)-5H-imidazo[5,1-a]isoindol-5-yl)-5,6,7,8-tetrahydroquinolin-5-ol] | 1400 nM |
| CC(C)S(=O)(=O)N1CC[C@@H]([C@H]2c3ccccc3-c3cncn32)[C@H](O)C1 (single isomer, unassigned) [Example 80b] | 140 nM |
| OC1C(C2c3ccc(F)cc3-c3cncn32)CC12CCOCC2 (single isomer, unassigned) [Example 109g] | 150 nM |
| O=S(=O)(C1CC1)N1CCC(C2c3ccccc3-c3cncn32)C(O)C1 (mixture of isomers) [Example 77b, (3S,4SR)-1-(cyclopropylsulfonyl)-4-((S)-5H-imidazo[5,1-a]isoindol-5-yl)piperidin-3-ol] | 86 nM |
| OC1CC(CF)(CF)C1C1c2ccccc2-c2cncn21 (single isomer, unassigned) [Example 150e] | 53 nM |
| CC1(C)CCCC(C)(C2c3ccccc3-c3cncn32)C1O (single isomer, unassigned) [Example 90b] | > 25000 nM |
| CC(O)(c1ncc[nH]1)C1c2ccccc2-c2cncn21 (single isomer, unassigned) [Example 143a] | > 25000 nM |

| Structure (SMILES) | EC50 |
| --- | --- |
| Nc1ccc2c(n1)CCC(C1c3ccccc3-c3cncn31)C2O (single isomer, unassigned) [Example 121a] | 840 nM |
| OC1c2cncnc2CCC1C1c2ccccc2-c2cncn21 (single isomer, unassigned) [Example 94h] | > 25000 nM |
| N#Cc1ccc2c(c1)C(O)C(C1c3ccccc3-c3cncn31)CC2 (single isomer, unassigned) [Example 113f] | 170 nM |
| Nc1ncc2c(n1)CCC(C1c3ccccc3-c3cncn31)C2O (single isomer, unassigned) [Example 111c] | 7800 nM |
| CC(C)(C)OC(=O)N1CC2(CC(C3c4ccccc4-c4cncn43)C2O)C1 (single isomer, unassigned) [Example 41a, tert-butyl 7-hydroxy-6-(5H-imidazo[1,5-b]isoindol-5-yl)-2-azaspiro[3.3]heptane-2-carboxylate] | > 25000 nM |
| OC1c2ccccc2CC1C1c2ccccc2-c2cncn21 (single isomer, unassigned) [Example 19a] | 7400 nM |
| NC(=O)c1ccc2c(c1)CC[C@@H]([C@H]1c3ccccc3-c3cncn31)[C@H]2O [Example 60f, (5R,6S)-5-hydroxy-6-((S)-5H-imidazo[5,1-a]isoindol-5-yl)-5,6,7,8-tetrahydronaphthalene-2-carboxamide] | 57 nM |
| N#Cc1cnc2c(c1)CC[C@H]([C@@H]1c3ccccc3-c3cncn31)[C@H]2O (single isomer, unassigned) [Example 107h] | 160 nM |
| CS(=O)(=O)c1ccc2c(c1)OCC(C1c3ccccc3-c3cncn31)C2O (single isomer, unassigned) [Example 91a] | 2800 nM |
| N#Cc1cnc2c(c1)CCC(C1c3ccccc3-c3cncn31)C2O (single isomer, unassigned) [Example 107d] | 2400 nM |
| CC(C)S(=O)(=O)N1CCC(C2c3ccccc3-c3cncn32)C(O)C1 (single isomer, unassigned) [Example 89b] | > 25000 nM |
| OC1(C2c3ccccc3-c3cncn32)CCCc2ccncc21 (single isomer, unassigned) [Example 141d] | > 25000 nM |
| NC(=O)c1nc2c(s1)CCC(C1c3ccccc3-c3cncn31)C2O (single isomer, unassigned) [Example 149d] | 9600 nM |
| OC1(C2c3ccccc3-c3cncn32)CCCOC1 (single isomer, unassigned) [Example 144a] | 1000 nM |
| O[C@@H]1c2ncccc2CC[C@H]1[C@H]1c2ccccc2-c2cncn21 (single isomer, unassigned) [Example 126a] | > 25000 nM |
| OC1(C2c3ccccc3-c3cncn32)CCCOC1 (single isomer, unassigned) [Example 144b] | > 25000 nM |
